Publication PMC11596563, “N-Aryl Benzimidazole and Benzotriazole Derivatives and Their Hybrids as Cytotoxic Agents: Design, Synthesis and Structure–Activity Relationship Studies” (Molecules, 2024)

Experiments:
[1] = system: A549; assay: MTT test, cytotoxic effect; assay type: cell-based; conditions: Homo sapiens, 24 h treatment, 0.1 to 100 µM, concentration that causes 50% cell death
Procedure: (§1) At the first stage of biological testing, we studied the effect of the synthesized compounds on the survival of cells of both tumoral and normal origin. […] In our work, the cytotoxic profile of the synthesized molecules was assessed using the MTT test, based on the ability of a colorless tetrazolium salt (3-[4,5-dimethylthiazol-2-yl]-2,5-diphenyltetrazolium bromide, MTT) to be reduced to colored formazan in the presence of the mitochondrial enzymes of living cells. For this purpose, a number of cell lines of tumoral origin (SH-SY5Y, A549, MCF-7 and SW-480), as well as normal origin (Hek-293), were used.
(§2) For the experiments, we used tumor cell cultures SH-SY5Y, human neuroblast-like cells, A549, human lung adenocarcinoma, MCF-7, human mammary adenocarcinoma, SW-480 and human colorectal adenocarcinoma, as well as cells of normal origin obtained from human embryonic kidneys, Hek-293.
(§3) All cells were cultured in the Dulbecco Modified Eagle’s Medium (DMEM) with a high glucose content, 10% fetal bovine serum and 1% penicillin-streptomycin as an antibiotic, in a moist incubator with 5% CO2 at 37°C.
(§4) To measure cellular metabolic activity, a colorimetric analysis was performed using the MTT reagent (3-(4,5–dimethylthiazol-2-yl)-2,5-diphenyltetrazolium bromide), which is an inhibitor of viable cells [73, 74].
(§5) • Briefly, cells in the logarithmic growth phase were digested and resuspended to adjust the cell density. The cells were then seeded in 96-well plates at a density of 10,000 cells per well. After 24 h of the incubation of the cells under the standard conditions described above (for the purpose of cell adhesion), the cells were treated with the synthesized compounds at different concentrations (0.1 to 100 µM) or a vehicle alone as a control (1% DMSO) for 24 h. After the incubation time of the cells with synthesized compounds, 5 mg/mL of MTT was added to the cells and incubated for 2 h at 37 °C. Next, the supernatant was discarded; after that, the formazan crystals were dissolved in a DMSO and the absorbance of each well was measured at 570 nm using a multifunctional microplate reader, Cytation3 (Biotech Tools Inc., Winooski, USA).

[2] = system: MCF-7; assay: MTT test, cytotoxic effect; assay type: cell-based; conditions: Homo sapiens, MCF7, 24 h treatment, 0.1 to 100 µM, concentration that causes 50% cell death
Procedure: as §1, §2, §3, §4, §5

[3] = system: SW-480; assay: MTT test, cytotoxic effect; assay type: cell-based; conditions: Homo sapiens, SW480, 24 h treatment, 0.1 to 100 µM, concentration that causes 50% cell death
Procedure: as §1, §2, §3, §4, §5

[4] = MTT test, cytotoxic effect on cells of normal origin; assay type: cell-based, human; conditions: human, Hek-293 cells (normal origin), 24 h treatment, 0.1 to 100 µM, normal cells, concentration that causes 50% cell death
Procedure: as §1, §2, §3, §4, §5

[5] = system: all the tested cell lines (SH-SY5Y, A549, MCF-7, SW-480, Hek-293); assay: MTT test, summary over all tested cell lines; assay type: cell-based, human; conditions: MTT, range of concentrations studied (0.1 to 100 µM)
Procedure: as §1
(§6) For the experiments, we used tumor cell cultures SH-SY5Y, human neuroblast-like cells, A549, human lung adenocarcinoma, MCF-7, human mammary adenocarcinoma, SW-480 and human colorectal adenocarcinoma, as well as cells of normal origin obtained from human embryonic kidneys, Hek-293. The cell lines were obtained from the collection of the Institute of Cytology, Russian Academy of Sciences (St. Petersburg, Russia).
as §3, §4
(§7) • Briefly, cells in the logarithmic growth phase were digested and resuspended to adjust the cell density. The cells were then seeded in 96-well plates at a density of 10,000 cells per well. […] Next, the supernatant was discarded; after that, the formazan crystals were dissolved in a DMSO and the absorbance of each well was measured at 570 nm using a multifunctional microplate reader, Cytation3 (Biotech Tools Inc., Winooski, USA).

[6] = system: SH-SY5Y; assay: cells; conditions: Homo sapiens, 24 h, read-out: IC50 of the cytotoxic effect, SH-SY5Y
Procedure: as §1, §2, §3, §4, §5

[7] = MTT test, summary over all tested cell lines; assay type: cell-based, human; conditions: human; all cells, including those of normal origin, Hek-293; read-out: IC50 values of the cytotoxic effect, range over all cells
Procedure: as §1, §6, §3, §4, §7

[8] = system: Fe(II)-induced lipid peroxidation (LPO) of rat brain homogenate; assay: Fe(II)-induced lipid peroxidation, modified TBARS test; assay type: biochemical; conditions: Fe(II) 500 μM, rat brain homogenate 2 mg/mL; for IC50: 1 to 300 μM, read-out: IC50 of the lipid peroxidation inhibitory effect; for decrease in the level of malondialdehyde: compounds at 100 μM
Procedure: In our work, the antioxidant status of the compounds was determined by their ability to influence the process of Fe(II)-induced lipid peroxidation (LPO) of rat brain homogenate (2 mg/mL). The effect of the substances on LPO was studied using a modified version of the TBA test in a plate format. This test is based on the reaction of 2-thiobarbituric acid with intermediate LPO products, resulting in the formation of a colored trimethine complex, the main role in the formation of which belongs to malondialdehyde. […] This was expressed in a decrease in the level of malondialdehyde in the system by 70, 79 and 71%, respectively, tending to the values of the well-known antioxidant Trolox. Additionally, the IC50 values of the lipid peroxidation inhibitory effect were calculated for these molecules, the values of which are presented in Figure 2B.
To obtain rat brain homogenate, an animal previously anesthetized in a CO2 chamber was decapitated using a guillotine. The brain was homogenized in a buffer containing KCl (120 mM) and HEPES (20 mM), pH = 7.4 at 4 ° C and centrifuged at 1500 g to obtain a supernatant.
The intensity of the lipid peroxidation of the rat brain homogenate was evaluated using a modified TBARS test. […] In the wells of the negative control, the Fe(II) was replaced with water; in samples with a positive control, a solvent was introduced instead of the studied compounds.
At the end of incubation, a TBA reagent ([…] thiobartituric and 1% trichloroacetic acids dissolved in 0.25 N HCl) was added to each well and heated at 90 °C for 90 min.

[9] = system: A549 cells; assay: Wound-healing assay (scratch test); assay type: cell-based, human; conditions: 1 μM; for migration capacity, decrease in the scratch width vs control: 24 h after the damage
Source text: It is also well known that migration and proliferation of cancer cells are key processes involved in the metastatic cascade of malignant neoplasms. In turn, the ability of therapeutic agents to inhibit these processes is considered a promising property of antitumor agents. In this regard, in order to assess the possible antimetastatic potential of cytotoxic diphenylamines 6b, c and d, we analyzed the effect of the substances on the migration and proliferation of tumor cells A549 in a scratch test.
Based on a preliminary series of experiments, 1 μM was chosen as the concentration used in this test, excluding the intrinsic cytotoxic effect of the substances. […] Thus, the data obtained 24 h after the damage was applied allowed us to evaluate the migration capacity of the cells, minimizing the contribution of cell proliferation.
The migration activity of A549 cells was determined by the wound-healing assay (scratch test). To do this, cells (15,000 cells per well) were seeded in a 96-well plate and cultured under the standard conditions described above. After 24 h of incubation, when the cells became 90% confluent, the medium was selected and an identical scratch wound across the center of each well was made by a 200 µL pipette tip.
To remove detached cells, the cell monolayer was washed twice with PBS; after that, the growth media and test compounds at 1 µM (or 1% DMSO as a solvent) were added to each well. A phase contrast microscope at a ×40 magnification was used to take photomicrographs after making the wound and then 24 h, 48 h and 72 h later.
The analysis of the obtained images was calculated using the open-source program ImageJ [80] and a special module: Wound_healing_size_tool.

SMILES | IC50 [1] | IC50 [2] | IC50 [3] | IC50 at 24 h [4] | toxic effect on the tested cell lines [5] | melting point | IC50 [6] | IC50 at 24 h [7] | IC50 [8] | decrease in the level of malondialdehyde [8] | unhealed defect area remaining from the original vs control ([9]; 48 and 72 h) | migration capacity, decrease in the scratch width vs control [9] | proliferation coefficient of cells vs control ([9]; A549)
Nc1cc(C(F)(F)F)ccc1Nc1cc(C(F)(F)F)ccc1-n1cnc2ccccc21 [6a, N-[2-(1H-benzimidazol-1-yl)-5-(trifluoromethyl)phenyl]-2-amino-4-(trifluoromethyl)aniline] | ≥ 100 µM | ≥ 100 µM | ≥ 100 µM | ≥ 100 µM | not toxic | 205 to 207 °C | ≥ 100 µM |  |  |  |  |  | 
Nc1cc(C(F)(F)F)ccc1Nc1cc(C(F)(F)F)ccc1-n1nnc2ccccc21 [6b, N-[2-(1H-benzotriazol-1-yl)-5-(trifluoromethyl)phenyl]-2-amino-4-(trifluoromethyl)aniline] | 26.28 ± 0.02 µM | 23.29 ± 0.12 µM | 25.09 ± 0.24 µM | 22.4 ± 0.41 µM |  | 170 to 173 °C | 25.98 ± 0.17 µM | 22 to 26 µM | 1.68 ± 0.08 µM | 70% | significantly increase | did not find any differences | significant decrease
Nc1cc(C(F)(F)F)ccc1Nc1cc(Cl)ccc1-n1nnc2ccccc21 [6d, N-[2-(1H-benzotriazol-1-yl)-5-chlorophenyl]-2-amino-4-(trifluoromethyl)aniline] | 41.4 ± 0.79 µM | 33.8 ± 0.64 µM | 40.38 ± 0.01 µM | 41.39 ± 0.05 µM |  | 191 to 194 °C | 31.56 ± 0.07 µM | 31 to 41 µM | 2.4 ± 0.05 µM | 71% |  | did not find any differences | 
